The numbers were not newly measured in patent publication US12716021B2, “Aqueous modified acid compositions and methods of using the same” (FLUID ENERGY GROUP LTD., priority 2019, dated 2026), which cites them from elsewhere.

Each structure is given as a SMILES string.

For this data set the following is noted: death in 2-3 minutes.

As for `Cl` [hydrogen chloride gas, hydrogen chloride], the “levels at which death can occur” value was 1300-2000 ppm.
